Data from patent US9156877B2, “17-hydroxy-17-pentafluorethyl-estra-4,9(10)-dien-11-benzylidene derivatives, methods for the production thereof and use thereof for treating diseases” (Bayer Intellectual Property GmbH, priority 2009, dated 2015).

Assays:
[1] = molecular target: T1, human progesterone receptor B (Homo sapiens, UniProt P06401); experiment: Progesterone receptor-antagonistic action in stably transfected SK-N-MC cells with MMTV-LUC reporter (PR-B); type: cell-based; details: antagonistic potency against 0.1 nmol/l promegestone, 24 hours, luciferase
T1 construct: expressed in transfected cells; host or cells: SK-N-MC human neuroblastoma cells, stably transfected with pRChPR-B-neo and pMMTV-LUC
T1 sequence (P06401 1-933): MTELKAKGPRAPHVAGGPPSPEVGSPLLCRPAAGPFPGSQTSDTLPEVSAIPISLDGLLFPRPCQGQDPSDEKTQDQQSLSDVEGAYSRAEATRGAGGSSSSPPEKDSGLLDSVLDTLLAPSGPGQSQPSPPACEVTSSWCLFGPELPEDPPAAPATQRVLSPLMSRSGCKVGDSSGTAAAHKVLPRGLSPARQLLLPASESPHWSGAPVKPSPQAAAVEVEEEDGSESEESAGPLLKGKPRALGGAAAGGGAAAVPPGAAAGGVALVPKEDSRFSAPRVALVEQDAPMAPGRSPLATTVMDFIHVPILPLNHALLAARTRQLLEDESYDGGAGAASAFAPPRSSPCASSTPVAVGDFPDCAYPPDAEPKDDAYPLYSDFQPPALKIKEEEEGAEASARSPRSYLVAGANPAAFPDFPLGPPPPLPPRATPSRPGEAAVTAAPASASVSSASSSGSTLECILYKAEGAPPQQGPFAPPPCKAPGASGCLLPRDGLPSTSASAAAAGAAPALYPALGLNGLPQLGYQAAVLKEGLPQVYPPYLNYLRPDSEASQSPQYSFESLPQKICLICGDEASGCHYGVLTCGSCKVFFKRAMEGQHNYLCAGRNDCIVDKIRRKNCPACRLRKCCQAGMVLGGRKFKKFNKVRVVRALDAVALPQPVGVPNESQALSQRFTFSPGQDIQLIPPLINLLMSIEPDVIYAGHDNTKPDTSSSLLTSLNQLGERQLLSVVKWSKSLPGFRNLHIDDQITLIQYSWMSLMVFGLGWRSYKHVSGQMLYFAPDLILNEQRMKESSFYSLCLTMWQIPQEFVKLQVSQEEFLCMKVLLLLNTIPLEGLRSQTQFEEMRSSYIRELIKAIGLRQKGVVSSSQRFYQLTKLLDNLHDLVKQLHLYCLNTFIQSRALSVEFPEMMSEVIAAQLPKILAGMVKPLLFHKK
Method: (§1) Determination of Progesterone Receptor-Antagonistic Action in Stable Transfectants of Human Neuroblastoma Cells (SK-N-MC Cells) with the Human Progesterone A or Progesterone B Receptor and an MN-LUC Reporter Construct
(§2) SK-N-MC cells (human neuroblastoma cells) which have been stably transfected with plasmids expressing the human progesterone receptor B (pRChPR-B-neo) or the human progesterone receptor A (pRChPR-A-neo) and a reporter construct (pMMTV-LUC) were incubated for 24 hours either in the absence (negative control) or in the presence of ascending amounts of the particular test compound (0.01 nmol/l, 0.1 nmol/l, 1 nmol/l, 10 nmol/l, 100 nmol/l and […]), in order to determine the agonistic efficacy. As a positive control of the reporter gene induction, the cells were treated with the synthetic gestagen promegestone (0.01 nmol/l, 0.1 nmol/l, 1 nmol/l, 10 nmol/l, 100 nmol/l and […]). To determine the antagonistic activity, the cells were treated with 0.1 nmol/l promegestone and additionally with ascending amounts of the particular test compound (0.01 nmol/l, 0.1 nmol/l, 1 nmol/l, 10 nmol/l, 100 nmol/l and […]). The activity of the reporter gene LUC (LUC=luciferase) was determined in the cell lysates and measured as RLU (relative light units). All measurements are reported as % efficacy and as EC50 and IC50 concentrations.

[2] = molecular target: T2, human progesterone receptor A (Homo sapiens, UniProt P06401); experiment: Progesterone receptor-antagonistic action in stably transfected SK-N-MC cells with MMTV-LUC reporter (PR-A); type: cell-based; details: antagonistic potency against 0.1 nmol/l promegestone, 24 hours, luciferase
T2 construct: expressed in transfected cells; host or cells: SK-N-MC human neuroblastoma cells, stably transfected with pRChPR-A-neo and pMMTV-LUC
T2 sequence (P06401 1-769 isoform P06401-2): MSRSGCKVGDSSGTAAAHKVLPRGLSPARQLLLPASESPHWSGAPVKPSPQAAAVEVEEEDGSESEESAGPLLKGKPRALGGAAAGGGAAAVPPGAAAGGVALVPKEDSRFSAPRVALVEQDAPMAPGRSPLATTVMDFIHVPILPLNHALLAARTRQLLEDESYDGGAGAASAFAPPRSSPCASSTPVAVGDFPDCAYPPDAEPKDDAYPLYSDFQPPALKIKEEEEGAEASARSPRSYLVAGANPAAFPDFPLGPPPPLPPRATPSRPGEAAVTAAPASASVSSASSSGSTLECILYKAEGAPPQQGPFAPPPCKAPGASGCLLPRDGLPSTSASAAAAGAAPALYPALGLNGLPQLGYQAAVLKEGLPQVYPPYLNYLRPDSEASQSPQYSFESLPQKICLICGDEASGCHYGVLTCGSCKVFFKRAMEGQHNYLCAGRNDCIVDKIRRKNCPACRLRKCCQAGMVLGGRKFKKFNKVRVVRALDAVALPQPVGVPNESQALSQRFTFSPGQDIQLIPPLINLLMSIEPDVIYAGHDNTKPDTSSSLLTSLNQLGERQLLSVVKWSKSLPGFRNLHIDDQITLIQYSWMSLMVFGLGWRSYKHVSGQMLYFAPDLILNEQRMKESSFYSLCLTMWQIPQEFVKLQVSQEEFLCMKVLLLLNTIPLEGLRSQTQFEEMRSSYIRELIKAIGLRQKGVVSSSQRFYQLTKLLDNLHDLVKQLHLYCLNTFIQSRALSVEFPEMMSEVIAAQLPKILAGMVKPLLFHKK
Method: as §1, §2

Row | SMILES | IC50 [1] | IC50 [2]
1 | C=Cc1cccc([C@H]2C[C@@]3(C)[C@@H](CC[C@@]3(O)C(F)(F)C(F)(F)F)[C@@H]3CCC4=CC(=O)CCC4=C32)c1 [Example 19, (8S,11R,13S,14S,17S)-17-hydroxy-13-methyl-17-pentafluoroethyl-11-(3-vinylphenyl)-1,2,6,7,8,11,12,13,14,15,16,17-dodecahydrocyclopenta[a]phenanthren-3-one] | 3000 pM | 3000 pM
2 | C=C(C)c1cccc([C@H]2C[C@@]3(C)[C@@H](CC[C@@]3(O)C(F)(F)C(F)(F)F)[C@@H]3CCC4=CC(=O)CCC4=C32)c1 [Example 20, (8S,11R,13S,14S,17S)-17-hydroxy-11-(3-isopropenylphenyl)-13-methyl-17-pentafluoroethyl-1,2,6,7,8,11,12,13,14,15,16,17-dodecahydrocyclopenta[a]phenanthren-3-one] | 11000 pM | 9000 pM
3 | Cc1nc(/C=C/c2cccc([C@H]3C[C@@]4(C)[C@@H](CC[C@@]4(O)C(F)(F)C(F)(F)F)[C@@H]4CCC5=CC(=O)CCC5=C43)c2)cs1 [Example 24, (8S,11R,13S,14S,17S)-17-hydroxy-13-methyl-11-{3-[(E)-2-(2-methylthiazol-4-yl)vinyl]phenyl}-17-pentafluoroethyl-1,2,6,7,8,11,12,13,14,15,16,17-dodecahydrocyclopenta[a]phenanthren-3-one] | 1000 pM | 1000 pM
4 | Cc1nc2cc(/C=C/c3cccc([C@H]4C[C@@]5(C)[C@@H](CC[C@@]5(O)C(F)(F)C(F)(F)F)[C@@H]5CCC6=CC(=O)CCC6=C54)c3)ccc2s1 [Example 25, (8S,11R,13S,14S,17S)-17-hydroxy-13-methyl-11-{3-[(E)-2-(2-methylbenzothiazol-5-yl)vinyl]phenyl}-17-pentafluoroethyl-1,2,6,7,8,11,12,13,14,15,16,17-dodecahydrocyclopenta[a]phenanthren-3-one] | 2000 pM | 1000 pM
5 | CSc1ccc(/C=C/c2ccc([C@H]3C[C@@]4(C)[C@@H](CC[C@@]4(O)C(F)(F)C(F)(F)F)[C@@H]4CCC5=CC(=O)CCC5=C43)cc2)cc1 [Example 33, (8S,11R,13S,14S,17S)-17-hydroxy-13-methyl-11-{4-[(E)-2-(4-methylsulphanylphenyl)vinyl]phenyl}-17-pentafluoroethyl-1,2,6,7,8,11,12,13,14,15,16,17-dodecahydrocyclopenta[a]phenanthren-3-one] | 800 pM | 100 pM
6 | C[C@]12C[C@H](c3ccc(/C=N/OCC(=O)O)cc3)C3=C4CCC(=O)C=C4CC[C@H]3[C@@H]1CC[C@@]2(O)C(F)(F)C(F)(F)F [Example 34, [1-[4-((8S,11R,13S,14S,17S)-17-hydroxy-13-methyl-3-oxo-17-pentafluoroethyl-2,3,6,7,8,11,12,13,14,15,16,17-dodecahydro-1H-cyclopenta[a]phenanthren-11-yl)phenyl]meth-(E)-ylideneaminooxy]acetic acid] | 2800 pM | 3900 pM
7 | C[C@]12C[C@H](c3ccc(/C=N/OCc4ccc(Cl)c(Cl)c4)cc3)C3=C4CCC(=O)C=C4CC[C@H]3[C@@H]1CC[C@@]2(O)C(F)(F)C(F)(F)F [Example 37, 4-((8S,11R,13S,14S,17S)-17-hydroxy-13-methyl-3-oxo-17-pentafluoroethyl-2,3,6,7,8,11,12,13,14,15,16,17-dodecahydro-1H-cyclopenta[a]phenanthren-11-yl)benzaldehyde O-(3,4-dichlorobenzyl)oxime] | 500 pM | 400 pM
8 | CC(C)CO/N=C/c1ccc([C@H]2C[C@@]3(C)[C@@H](CC[C@@]3(O)C(F)(F)C(F)(F)F)[C@@H]3CCC4=CC(=O)CCC4=C32)cc1 [Example 38, 4-((8S,11R,13S,14S,17S)-17-hydroxy-13-methyl-3-oxo-17-pentafluoroethyl-2,3,6,7,8,11,12,13,14,15,16,17-dodecahydro-1H-cyclopenta[a]phenanthren-11-yl)benzaldehyde O-isobutyl oxime] | 100 pM | 90 pM
9 | CC(C)(C)NC(=O)NC/C=C/c1ccc([C@H]2C[C@@]3(C)C(CC[C@@]3(O)C(F)(F)C(F)(F)F)C3CCC4=CC(=O)CCC4=C32)cc1 (some centres unmarked) [Example 41] | 100 pM | 100 pM

Next, values leading:

Row | IC50 [1] | IC50 [2] | SMILES
10 | 80 pM | 90 pM | COC(=O)c1cccc(/C=C/c2ccc([C@H]3C[C@@]4(C)[C@@H](CC[C@@]4(O)C(F)(F)C(F)(F)F)[C@@H]4CCC5=CC(=O)CCC5=C43)cc2)c1 [Example 30, 3-{(E)-2-[4-((8S,11R,13S,14S,17S)-17-hydroxy-13-methyl-3-oxo-17-pentafluoroethyl-2,3,6,7,8,11,12,13,14,15,16,17-dodecahydro-1H-cyclopenta[a]phenanthren-11-yl)phenyl]vinyl}benzoic acid methyl ester]
11 | 100 pM | 90 pM | COC(=O)c1ccc(/C=C/c2ccc([C@H]3C[C@@]4(C)[C@@H](CC[C@@]4(O)C(F)(F)C(F)(F)F)[C@@H]4CCC5=CC(=O)CCC5=C43)cc2)cc1 [Example 31, 4-{(E)-2-[4-((8S,11R,13S,14S,17S)-17-hydroxy-13-methyl-3-oxo-17-pentafluoroethyl-2,3,6,7,8,11,12,13,14,15,16,17-dodecahydro-1H-cyclopenta[a]phenanthren-11-yl)phenyl]vinyl}benzoic acid methyl ester]
12 | 10 pM | 10 pM | C[C@]12C[C@H](c3ccc(/C=C/c4ccc(S(C)(=O)=O)cc4)cc3)C3=C4CCC(=O)C=C4CC[C@H]3[C@@H]1CC[C@@]2(O)C(F)(F)C(F)(F)F [Example 32, (8S,11R,13S,14S,17S)-17-hydroxy-11-{4-[(E)-2-(4-methanesulphonylphenyl)vinyl]phenyl}-13-methyl-17-pentafluoroethyl-1,2,6,7,8,11,12,13,14,15,16,17-dodecahydrocyclopenta[a]phenanthren-3-one]
13 | 90 pM | 100 pM | C[C@]12C[C@H](c3ccc(C=NOCc4ccccc4)cc3)C3=C4CCC(=O)C=C4CC[C@H]3[C@@H]1CC[C@@]2(O)C(F)(F)C(F)(F)F [Example 35, 4-((8S,11R,13S,14S,17S)-17-hydroxy-13-methyl-3-oxo-17-pentafluoroethyl-2,3,6,7,8,11,12,13,14,15,16,17-dodecahydro-1H-cyclopenta[a]phenanthren-11-yl)benzaldehyde O-benzyl oxime]
